# Laboratory results from publication PMC11912270, “Synthesis and SAR Studies of Acyl-Thiourea Platinum(II) Complexes Yield Analogs with Dual-Stage Antiplasmodium Activity” (ACS Medicinal Chemistry Letters, 2025).
# Key:
# [1] = Glutathione binding UV-Vis titration; details: GSH binding
# Experimental: The binding of glutathione (GSH) to the platinum(II) complexes was monitored by observing the decrease in the metal-to-ligand-charge transfer (MLCT) band via a UV-Vis spectrophotometer.8 For this, 1–10 µL aliquots of GSH (0.4 M) in a PBS and DMSO (0.01% DMSO, v/v) mixture was added to a cuvette containing the relevant metal complex (50 µM) in the same solvent mixture. After each addition, the solution was stirred and allowed to incubate at room temperature for 3–5 minutes before recording the absorption spectrum between the wavelength range of 250–700 nm. These titrations were performed in triplicate and the average binding constants (logK) were reported with the standard error of the mean (SEM). The logK values were calculated from the best-fit model (describing a 1:1 association) using Equation 1.
# [2] = Kinetic solubility by HPLC (pH 6.5); details: kinetic, HPLC, pH 6.5
# Experimental: 1.7. Kinetic solubility by HPLC (pH 6.5)
# Solubility was measured at pH 6.5 using an adapted miniaturized shake-flask method, in 96-well plate format.4,5 Briefly, 4 µL of a 10 mM stock in DMSO was added to a 96-well plate and evaporated using a GeneVac system. Phosphate buffer pH 6.5 was then added to the wells […]
# At the end of this incubation, the […]
# in the analysis plate. Analysis was then performed by HPLC-DAD and the solubility of each sample was determined from the corresponding calibration curve. […]
# [3] = In vivo pharmacokinetics in female Balb/C mice; set-up: species or system mouse
# Experimental: In this regard, three replicates of female Balb/C mice were dosed at either 3 mg/kg (intravenously, i.v.) or 10 mg/kg (orally, p.o.). Blood was sampled at specific time intervals over 48 h. The corresponding PK parameters were calculated using noncompartmental analysis (Table 2). […]
# 1.9. Determination of pharmacokinetic parameters […]
# parameters. Compounds were administered either intravenously as a bolus solution […]
# Mice were allowed to eat and access water freely.
# To determine the PK parameters, blood samples were collected from the tail vein of the mice into heparinized microcentrifugation tubes at distinct sampling times (0.17, 0.5, 1, 3, 5, 7, 9, 24, and 48 hours for intravenous dosing; 0.5, 1, 3, 5, 7, 9, 24 and 48 hours for oral dosing). All samples were stored at -80 °C until extraction.
# For the bioanalysis, frozen whole blood was thawed at room temperature and 1-0 µL of each sample was extracted by protein precipitation (using 100 µL of acetonitrile containing 10 ng/ml of the internal standard, MMV394902). The sample was centrifuged. Supernatants of each sample were injected into the LC-MS/MS column for analysis. The analytical limit of quantitation (LOQ) was 2 ng/mL. The pharmacokinetic parameters were calculated using noncompartmental analysis using PK Solutions 2.0 (Summit Research Services, Montrose, CO, USA) and a curve stripping-based method. […]
# 1.11. Plasma protein binding (PPB)
# To determine the percentage of test compound bound to plasma, ultracentrifugation was used.
# The test compound (5 µM of a 10 mM DMSO stock) was used to spike pooled human plasma.
# An aliquot of the spiked solution was removed immediately and quenched with carbamazepine, […]
# [4] = system: PfK1 ABS parasites; format: cell-based, Plasmodium falciparum
# Experimental: (§1) The parasites were incubated under drug […]
# (§2) incubation, parasite survival was determined by adding equal volumes of parasite suspension (100 µL) and SYBR Green I lysis buffer (0.2% µL/mL of 10 000x SYBR Green I, 20 mM Tris-HCl, pH 7.5, 5 mM EDTA, 0.008% saponin (w/v) and 0.08% Triton x-100). This was incubated for 1 hour at room temperature in the dark. […]
# [5] = system: PfNF54 ABS parasites; assay: SYBR Green I-based proliferative assay, PfNF54 ABS parasites; format: cell-based, Plasmodium falciparum; details: ABS, SYBR Green I, 96 h; mean ± S.E., N = 3 (no S.E.: N = 1)
# Experimental: as §1, §2
# [6] = Single-point microsomal metabolic stability, mouse; format: in vitro ADME; details: mouse liver microsomes, 1 µM
# Experimental: 1.8. Microsomal metabolic stability studies […]
# rat IGS, Xenotech), and mouse (male mouse CD1, Xenotech) liver microsomes (0.4 mg/ml) for 30 min at 37 °C. Reactions were quenched by adding ice-cold acetonitrile containing […]
# disappearance of the parent compound. Half-life, clearance, and hepatic excretion ratios were determined using standard equations.6,7 Propranolol. […]
smiles,measurement,setting,value
Nc1cc[n+]2c(c1)-c1cc(N)cc[n+]1[Pt-2]21[O+]=C(c2ccccc2)N=C(N(CCO)CCO)[S]1.[Cl-] [C6],Average logK ± SEM,"[1]; N = 3, PBS",2.58 ± 0.19
same,LogK N = 1,[1]; replicate N = 1,2.80
same,LogK N = 2,[1]; replicate N = 2,2.21
same,LogK N = 3,[1]; replicate N = 3,2.74
same,Aqueous solubility pH 6.5,[2],100 μM
same,CLs i.v.,[3]; 3 mg/kg i.v.,46.4 mL/min/kg
same,T1/2 i.v.,[3]; 3 mg/kg i.v.,10.8 h
same,T1/2 p.o.,[3]; 10 mg/kg p.o.,12.0 h
same,Bioavailability,[3]; 10 mg/kg p.o. vs 3 mg/kg i.v.,3.8%
same,Vss i.v.,"[3]; female Balb/C mice, 3 mg/kg i.v.",45.6 L/kg
same,Vssu,"[3]; i.v., unbound fraction",4560 L/kg
same,CLu,"[3]; p.o., unbound fraction",> 1000 mL min^–1 kg^–1
same,CLu i.v.,"[3]; unbound fraction, Clu = Cls/Fu, i.v.",>1000 mL/min/kg
same,Vssu i.v.,"[3]; unbound fraction, Vssu = Vss/Fu, 3 mg/kg i.v.",4560 L/kg
same,IC50,"[4]; ABS, SYBR Green I, 96 h, mean ± S.E.",0.102 ± 0.013 µM
same,RI (resistance index),[4]; RI = PfK1 IC50/PfNF54 IC50,2.8
same,IC50,[5],0.0363 ± 0.0006 µM
same,Microsomal metabolic stability (% remaining after 30 min) Mouse,[6],94 % remaining
